Source: PubChem BioAssay (NCI)
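How tested: cells in 96-well plates exposed to compound for 48 hours at five concentrations. The concentration for full growth arrest is given as TGI.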

Assays:
Test in all cases: NCI anticancer screen, dose series, 48 h
SK-MEL-5 melanoma = system: SK-MEL-5 melanoma
OVCAR-4 ovarian = system: OVCAR-4 ovarian
HCC-2998 colon = system: HCC-2998 colon
NCI/ADR-RES ovarian = system: NCI/ADR-RES ovarian
CAKI-1 renal = system: CAKI-1 renal
HOP-92 NSCLC = system: HOP-92 NSCLC
HOP-62 NSCLC = system: HOP-62 NSCLC
SN12C renal = system: SN12C renal
LOX IMVI melanoma = system: LOX IMVI melanoma
MDA-MB-435 = system: MDA-MB-435
SR leukemia = system: SR leukemia
TK-10 renal = system: TK-10 renal
U251 CNS = system: U251 CNS
OVCAR-5 ovarian = system: OVCAR-5 ovarian
ACHN renal = system: ACHN renal
MALME-3M melanoma = system: MALME-3M melanoma
786-0 renal = system: 786-0 renal
SNB-19 CNS = system: SNB-19 CNS
UACC-62 melanoma = system: UACC-62 melanoma
CCRF-CEM leukemia = system: CCRF-CEM leukemia
NCI-H23 lung = system: NCI-H23 lung
EKVX NSCLC = system: EKVX NSCLC
SK-OV-3 ovarian = system: SK-OV-3 ovarian
K-562 leukemia = system: K-562 leukemia
SF-295 CNS = system: SF-295 CNS
HT29 colon = system: HT29 colon
UACC-257 melanoma = system: UACC-257 melanoma
UO-31 renal = system: UO-31 renal
HS 578T breast = system: HS 578T breast
IGROV1 ovarian = system: IGROV1 ovarian
SF-539 CNS = system: SF-539 CNS
COLO 205 colon = system: COLO 205 colon
KM12 colon = system: KM12 colon
HCT-15 colon = system: HCT-15 colon
NCI-H460 lung = system: NCI-H460 lung
NCI-H522 lung = system: NCI-H522 lung
SW-620 colon = system: SW-620 colon
RXF 393 renal = system: RXF 393 renal
PC-3 prostate = system: PC-3 prostate
NCI-H226 lung = system: NCI-H226 lung
RPMI-8226 leukemia = system: RPMI-8226 leukemia
SF-268 CNS = system: SF-268 CNS
M14 melanoma = system: M14 melanoma
T-47D breast = system: T-47D breast
SK-MEL-2 melanoma = system: SK-MEL-2 melanoma
MDA-N = system: MDA-N
MOLT-4 leukemia = system: MOLT-4 leukemia
HCT-116 colon = system: HCT-116 colon
SK-MEL-28 melanoma = system: SK-MEL-28 melanoma
MCF7 breast = system: MCF7 breast
HL-60(TB) leukemia = system: HL-60(TB) leukemia
OVCAR-3 ovarian = system: OVCAR-3 ovarian
A498 renal = system: A498 renal
A549 NSCLC = system: A549 NSCLC
DU-145 prostate = system: DU-145 prostate

Measured: TGI

CN(C)CCNC(=O)Cn1ccc(=O)c2ccc([N+](=O)[O-])cc21
> 100 µM: all assays above
